The source of these data is BindingDB's records for doi:10.1016/j.bmc.2010.04.086 (Hoshi University, 2010).

This experiment concerns the target T1, Polyphenol oxidase 2 (Agaricus bisporus, UniProt O42713).
T1 sequence (O42713 whole entry): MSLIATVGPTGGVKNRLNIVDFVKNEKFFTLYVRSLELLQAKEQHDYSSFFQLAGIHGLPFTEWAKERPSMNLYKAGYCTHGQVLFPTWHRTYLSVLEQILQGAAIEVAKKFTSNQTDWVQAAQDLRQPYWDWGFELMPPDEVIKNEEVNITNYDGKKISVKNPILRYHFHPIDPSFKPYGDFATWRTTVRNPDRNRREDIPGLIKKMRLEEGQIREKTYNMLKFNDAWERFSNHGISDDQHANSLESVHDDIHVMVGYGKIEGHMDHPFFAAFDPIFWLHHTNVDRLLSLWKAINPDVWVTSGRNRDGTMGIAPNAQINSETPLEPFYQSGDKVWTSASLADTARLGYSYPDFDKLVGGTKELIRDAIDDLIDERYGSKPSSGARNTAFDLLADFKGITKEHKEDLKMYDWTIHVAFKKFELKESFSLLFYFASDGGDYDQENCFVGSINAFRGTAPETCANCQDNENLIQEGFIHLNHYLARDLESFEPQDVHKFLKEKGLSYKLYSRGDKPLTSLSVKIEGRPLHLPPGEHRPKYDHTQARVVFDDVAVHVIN
The experiment is described as follows: Inhibition of mushroom tyrosinase.
Molecule `COC(=O)C1C2=Nc3c(O)cccc3[C@]23CC[N+]2([O-])C[C@H](C(C)=O)[C@H]1C[C@H]32` (stereo not given in full) [Alpneumine A] yielded an IC50 of over 100 µM.

In turn, `COC(=O)C1C2=Nc3c(O)cccc3[C@]23CCN2C[C@H](C(C)=O)[C@H]1C[C@@H]23` (stereo not given in full) [Alpneumine B] showed an IC50 of over 100 µM.

Molecule `COC(=O)C1C2=Nc3ccccc3[C@]23CC[N+]2([O-])C[C@H](C(C)=O)[C@H]1C[C@H]32` (stereo not given in full) [Alpneumine C] returned an IC50 of over 100 µM.

`COC(=O)C1C2=Nc3c(O)cccc3[C@]23CCN2C[C@@H](C(C)=O)[C@H]1C[C@@H]23` (stereo not given in full) [Alpneumine D]: the IC50 was over 100 µM.

The molecule `COC(=O)C1C2=Nc3ccccc3[C@]23CCN2C[C@@H](C(C)=O)[C@H]1C[C@@H]23` (stereo not given in full) [Alpneumine E] registered an IC50 of over 100 µM.

Usually IC50 stands for the concentration that gives 50% inhibition. Low readings indicate greater potency, high ones weaker potency.
